What is called aqueous solubility is how much of the substance goes into solution per volume. A low value points to a poorly soluble substance.

The results in this text go back to the Biogen ADME set (Fang et al. 2023).

For this data set the following is noted: for aqueous solubility: pH 6.8.

Each structure is given as a SMILES string. Converted amounts (≈) assume the structure as drawn. Bounds are passed on as bounds.

Turning to `CCNC(=O)c1ccc(CS(C)(=O)=O)cc1`, the MDR1-MDCK efflux ratio stood at 2.62; the intrinsic clearance, human liver microsomes was no more than 4.74 mL/min/kg; the intrinsic clearance, rat liver microsomes worked out at 20.6 mL/min/kg; the aqueous solubility was 40.9 µg/mL (≈ 169 µM).
For `CS(=O)(=O)NC1CCN(C(=O)NCCc2ccc(F)cc2)CC1` the same measures were 35.3, no more than 4.74 mL/min/kg, 61.4 mL/min/kg and 67.9 µg/mL (≈ 198 µM).
The like results for `COCCOCc1ccc(-c2cc3onc(-c4ccccc4)c3c(=O)n2C)cc1` were, in that order, 0.466, 13.7 mL/min/kg, 135 mL/min/kg and 14.2 µg/mL (≈ 36.5 µM).
Consider `O=C(C1CC1)N1CCC(CNS(=O)(=O)N2CCCCCC2)CC1`, for which the MDR1-MDCK efflux ratio was found to be 15.2; the intrinsic clearance, human liver microsomes came out at 40.4 mL/min/kg; the intrinsic clearance, rat liver microsomes amounted to 1320 mL/min/kg.
For the compound `O=C(Cn1cccc(C(=O)Nc2cccc(-n3cccn3)c2)c1=O)NC1CCCCC1`, the MDR1-MDCK efflux ratio was 18.7 and the aqueous solubility was determined as 0.8 µg/mL (≈ 1.91 µM).
Consider `CN(CC1CCCC1)C(=O)Nc1ccccc1N1CCOC1=O`, for which the MDR1-MDCK efflux ratio is 5.03; the intrinsic clearance, human liver microsomes came out at 44.9 mL/min/kg; the intrinsic clearance, rat liver microsomes was found to be 541 mL/min/kg; the aqueous solubility is 50.6 µg/mL (≈ 159 µM).
`COc1cccc(CN(C)c2cc(N3CCCC3)ncn2)n1`: the MDR1-MDCK efflux ratio came to 0.683; the intrinsic clearance, human liver microsomes was determined as 128 mL/min/kg; the intrinsic clearance, rat liver microsomes was determined as 4460 mL/min/kg.
Turning to `CCC(=O)N(C)CC(=O)Nc1cccc(F)c1`, the MDR1-MDCK efflux ratio is 0.705; the intrinsic clearance, human liver microsomes is no more than 4.74 mL/min/kg; the intrinsic clearance, rat liver microsomes was found to be 12.2 mL/min/kg; the aqueous solubility is 44.8 µg/mL (≈ 188 µM).
For `CCNc1ccnc(N(C)Cc2nc3ccccc3n2C)n1` the same measures were 1.28, 29.5 mL/min/kg, 434 mL/min/kg and 37 µg/mL (≈ 125 µM).
In the case of `NCCC(=O)Nc1ccc2[nH]c(=O)[nH]c2c1`, the aqueous solubility turned out to be 143 µg/mL (≈ 648 µM).
Regarding `O=C(NCCc1ccc2c(c1)OCO2)Nc1ccncc1`, the MDR1-MDCK efflux ratio came out at 3.6; the intrinsic clearance, human liver microsomes was found to be 8.32 mL/min/kg; the intrinsic clearance, rat liver microsomes worked out at 27.3 mL/min/kg; the aqueous solubility was 46.5 µg/mL (≈ 163 µM).
Consider `O=C(CCc1cccs1)Nc1ccc(N2CCOCC2)cn1`, for which the MDR1-MDCK efflux ratio is 0.618; the intrinsic clearance, human liver microsomes turned out to be 21.6 mL/min/kg; the intrinsic clearance, rat liver microsomes was found to be 49.2 mL/min/kg; the aqueous solubility was found to be 32.2 µg/mL (≈ 101 µM).
As for `CCOC(=O)N1CCC(C(=O)Nc2cccc(C)c2)CC1`, the aqueous solubility was found to be 56.3 µg/mL (≈ 194 µM).
Take `CN(CCSc1ccc2nnnn2n1)Cc1ccccc1`: the MDR1-MDCK efflux ratio worked out at 0.431; the intrinsic clearance, human liver microsomes was determined as 64.7 mL/min/kg; the intrinsic clearance, rat liver microsomes was no more than 10.7 mL/min/kg.
In the case of `Cc1ccc(S(=O)(=O)Cc2nc(-c3ccc(C(=O)NCc4cccnc4)cc3)oc2C)cc1`, the MDR1-MDCK efflux ratio is 56.4 and the aqueous solubility came to 0.33 µg/mL (≈ 0.715 µM).
Regarding `COc1ccc(OCc2n[nH]c(-c3ncoc3C(C)C)n2)cc1`, the MDR1-MDCK efflux ratio stood at 0.675; the intrinsic clearance, human liver microsomes is 17.8 mL/min/kg; the intrinsic clearance, rat liver microsomes was 514 mL/min/kg.
In turn, `Cc1cc(N2CCCC2c2cc(CCC(=O)O)cc(C)n2)ncn1` (stereo not drawn) returned a fraction unbound, human plasma of 1; a fraction unbound, rat plasma of 1; an intrinsic clearance, human liver microsomes of no more than 4.74 mL/min/kg; an intrinsic clearance, rat liver microsomes of no more than 10.7 mL/min/kg.
As for `O=c1c2cccc(C(F)(F)F)c2ncn1C1CCCC1`, the MDR1-MDCK efflux ratio was determined as 0.528; the intrinsic clearance, human liver microsomes was found to be 115 mL/min/kg; the intrinsic clearance, rat liver microsomes came out at 317 mL/min/kg.
With `CCN(c1ccccc1)S(=O)(=O)c1ccc(C(F)(F)F)cc1`, the aqueous solubility turned out to be 1.4 µg/mL (≈ 4.25 µM).
As for `CC(C)(O)C(=O)N1CCC(c2ccc3c(NCc4ccccc4F)n[nH]c3n2)CC1`, the MDR1-MDCK efflux ratio was found to be 15.4; the intrinsic clearance, human liver microsomes was determined as 8.35 mL/min/kg; the intrinsic clearance, rat liver microsomes was 69.8 mL/min/kg; the aqueous solubility was 29.2 µg/mL (≈ 70.9 µM).
Consider `COc1ccc(C(C)(C)C)cc1NC(=O)C1(C#N)CCCC1`, for which the MDR1-MDCK efflux ratio was 0.478 and the aqueous solubility turned out to be 0.3 µg/mL (≈ 0.999 µM).
For the compound `N#Cc1ccccc1CN1C(=O)CCC1=O`, the intrinsic clearance, human liver microsomes is no more than 4.74 mL/min/kg and the intrinsic clearance, rat liver microsomes was 20.4 mL/min/kg.
`Cn1c(-c2n[nH]c3c2CCCC3)nnc1N1CCC2(CNC(=O)C2)C1` (stereo not drawn): the MDR1-MDCK efflux ratio turned out to be 5.01; the fraction unbound, human plasma worked out at 0.621; the intrinsic clearance, human liver microsomes is no more than 4.74 mL/min/kg.
As for `CC(C)(C)N1CCCN(C(=O)CNc2ccc(C#N)cc2)CC1`, the MDR1-MDCK efflux ratio is 0.887; the intrinsic clearance, human liver microsomes is no more than 4.74 mL/min/kg; the intrinsic clearance, rat liver microsomes amounted to 65.3 mL/min/kg; the aqueous solubility is 50 µg/mL (≈ 159 µM).
Consider `C[C@H]1CN(Cc2c(Cl)cccc2C(F)(F)F)C[C@@]1(CC(=O)O)C(=O)NC1CCN(CC2=CCCCC2)CC1`, for which the MDR1-MDCK efflux ratio was determined as 80.8.
`CC(Sc1nc2c(cnn2-c2ccccc2)c(=O)[nH]1)C(N)=O` (stereo not drawn) yielded an aqueous solubility of 2.15 µg/mL (≈ 6.82 µM).
Take `Cc1cccc(-n2cnnc2CCCN2CCOCC2)c1`: the MDR1-MDCK efflux ratio came out at 30.5; the intrinsic clearance, human liver microsomes is no more than 4.74 mL/min/kg; the intrinsic clearance, rat liver microsomes is 98.3 mL/min/kg; the aqueous solubility is 35 µg/mL (≈ 122 µM).
With `CC(=O)N[C@H]1CC2(CCN(C(=O)COc3cc(C)c(Cl)c(C)c3)CC2)OC[C@]1(C)O`, the MDR1-MDCK efflux ratio was found to be 42.6; the intrinsic clearance, human liver microsomes turned out to be 24.4 mL/min/kg; the intrinsic clearance, rat liver microsomes came to 166 mL/min/kg.
For the compound `O=C1Nc2ccccc2O[C@H]2C[C@@H]1N(Cc1cccnc1)C2`, the MDR1-MDCK efflux ratio stood at 17.7; the intrinsic clearance, human liver microsomes amounted to 12.7 mL/min/kg; the intrinsic clearance, rat liver microsomes worked out at 281 mL/min/kg; the aqueous solubility came out at 94.3 µg/mL (≈ 319 µM).
As to `Cc1nc(N2CCNCC2)c2cnn(C)c2n1`, the MDR1-MDCK efflux ratio is 15.3; the intrinsic clearance, human liver microsomes is no more than 4.74 mL/min/kg; the intrinsic clearance, rat liver microsomes is 15.1 mL/min/kg.
For `Cc1nc(CN2C[C@@H](c3ccc4c(c3)OCO4)[C@@H]3[C@H]2C2CCN3CC2)co1`, the MDR1-MDCK efflux ratio is 53.4; the intrinsic clearance, human liver microsomes was 96.7 mL/min/kg; the intrinsic clearance, rat liver microsomes was 205 mL/min/kg; the aqueous solubility came to 48.3 µg/mL (≈ 131 µM).
For the compound `Cc1nc(C)c(C)c(NCc2cc(-c3ccc(F)cc3)no2)n1`, the MDR1-MDCK efflux ratio is 0.906; the intrinsic clearance, human liver microsomes came to 20.3 mL/min/kg; the intrinsic clearance, rat liver microsomes amounted to 242 mL/min/kg; the aqueous solubility stood at 37.5 µg/mL (≈ 120 µM).
The like results for `Cc1c(-c2ccccc2)oc2c(C(=O)NCCCN3CCCCC3)cccc2c1=O` were, in that order, 11, 13.3 mL/min/kg, 106 mL/min/kg and 48.7 µg/mL (≈ 120 µM).
Compound `Cc1cccc(NC(=O)C(=O)c2c(C)nn(C)c2C)n1` showed an intrinsic clearance, human liver microsomes of 19.4 mL/min/kg and an intrinsic clearance, rat liver microsomes of 231 mL/min/kg.
Turning to `Cc1nc(N)c2c(C(F)(F)F)cc(C3CCN(C(=O)Cc4ccc(F)cc4)CC3)nc2n1`, the MDR1-MDCK efflux ratio is 28.5; the intrinsic clearance, human liver microsomes came to 50.3 mL/min/kg; the intrinsic clearance, rat liver microsomes worked out at 874 mL/min/kg; the aqueous solubility was determined as 59.6 µg/mL (≈ 133 µM).
`Cn1c(=O)c(C(=O)CSc2nc3ccccc3n2C)c(N)n(Cc2ccccc2)c1=O`: the MDR1-MDCK efflux ratio is 13; the intrinsic clearance, human liver microsomes amounted to 839 mL/min/kg; the intrinsic clearance, rat liver microsomes is 2400 mL/min/kg.
Turning to `Cc1noc(C)c1CS(=O)(=O)Cc1cccc2c1OCCO2`, the MDR1-MDCK efflux ratio is 2.46; the intrinsic clearance, human liver microsomes came out at 39.8 mL/min/kg; the intrinsic clearance, rat liver microsomes was determined as 2290 mL/min/kg; the aqueous solubility amounted to 53.3 µg/mL (≈ 165 µM).
For `O=C(CCc1ccc2c(c1)OCO2)Nc1nc2c(s1)CCC2` the same measures were 0.236, 97.4 mL/min/kg, 593 mL/min/kg and 11.6 µg/mL (≈ 36.5 µM).
As for `COc1ccccc1-c1cc(NC(=O)c2cccc(N3CCNC3=O)c2)[nH]n1`, the MDR1-MDCK efflux ratio stood at 60.4; the fraction unbound, human plasma came to 0.004; the fraction unbound, rat plasma is 0.00181; the intrinsic clearance, human liver microsomes worked out at 7.53 mL/min/kg. This compound also registered an intrinsic clearance, rat liver microsomes of 103 mL/min/kg and an aqueous solubility of 5.95 µg/mL (≈ 15.8 µM).
Consider `CC(C)(C)c1[nH]cnc1/C=c1\[nH]c(=O)/c(=C/c2ccccc2)[nH]c1=O`, for which the MDR1-MDCK efflux ratio worked out at 7.19; the intrinsic clearance, human liver microsomes was no more than 4.74 mL/min/kg; the intrinsic clearance, rat liver microsomes came to 146 mL/min/kg.
Take `CC(C)c1nc(/C=C/c2cnn(C)c2)ncc1C(=O)O`: the intrinsic clearance, human liver microsomes was no more than 4.74 mL/min/kg and the intrinsic clearance, rat liver microsomes was no more than 10.7 mL/min/kg.
Turning to `Cc1ccc(Cl)c(OC[C@@]2(O)CN(C3CCC3)CC[C@@H]2O)c1`, the MDR1-MDCK efflux ratio stood at 0.695; the intrinsic clearance, human liver microsomes amounted to 166 mL/min/kg; the intrinsic clearance, rat liver microsomes is 2290 mL/min/kg.
For the compound `CCC(CC)NC(=O)c1cc(C)nc2onc(C)c12`, the MDR1-MDCK efflux ratio came to 1.34; the intrinsic clearance, human liver microsomes is no more than 4.74 mL/min/kg; the intrinsic clearance, rat liver microsomes was no more than 10.7 mL/min/kg; the aqueous solubility is 45.5 µg/mL (≈ 174 µM).
For `Cn1c(C(=O)N2CCN(CCc3ccccc3)C(=O)C2)cc(=O)n(C)c1=O` the same measures were 8.33, no more than 4.74 mL/min/kg, 31.7 mL/min/kg and 59.7 µg/mL (≈ 161 µM).
For `CC(C)CCN1CCc2nc3cc(C4CC4)nn3c(O)c2C1`, the MDR1-MDCK efflux ratio stood at 9.05; the intrinsic clearance, human liver microsomes came out at 7.62 mL/min/kg; the intrinsic clearance, rat liver microsomes came out at 30.3 mL/min/kg.
Take `O=C(CCOc1ccccc1)N1CCCC(c2n[nH]cc2-c2ccc(Cl)cc2)C1` (stereo not drawn): the MDR1-MDCK efflux ratio turned out to be 4.26 and the aqueous solubility turned out to be 0.8 µg/mL (≈ 1.95 µM).
Regarding `CC(=O)NC[C@H]1C[C@]2(C)[C@@H](CCCC[C@]2(C)O)N1CC1(O)CCCC1`, the MDR1-MDCK efflux ratio worked out at 8.2; the intrinsic clearance, human liver microsomes was no more than 4.74 mL/min/kg; the intrinsic clearance, rat liver microsomes was determined as 107 mL/min/kg.
